Assay results reported in patent US20230391768A2, “IMIDAZOPYRIDINE DERIVATIVES AND AZA-IMIDAZOPYRIDINE DERIVATIVES AS JANUS KINASE 2 INHIBITORS AND USES THEREOF” (Dana-Farber Cancer Institute, Inc., priority 2018, published 2023).

Legend:
Assay in all cases: KINOMEscan
Assay type in all cases: binding
Details in all cases: read-out: percent of control
CAMK2A = CAMK2A (Homo sapiens (Human), UniProt Q9UQM7)
Experimental: (§1) In vitro profiling of Compound I-2 (1 μM) was performed using the DiscoveRx KINOMEscan® platform.

IKK-alpha = IKK-alpha (Homo sapiens (Human), UniProt O15111)
Experimental: as §1

WNK4 = WNK4 (Homo sapiens (Human), UniProt Q96J92)
Experimental: as §1

BMPR1B = BMPR1B (Homo sapiens (Human), UniProt O00238)
Experimental: as §1

PDGFRB = PDGFRB (Homo sapiens (Human), UniProt P09619)
Experimental: as §1

EPHA6 = EPHA6 (Homo sapiens (Human), UniProt Q9UF33)
Experimental: as §1

MEK6 = MEK6 (Homo sapiens (Human), UniProt P52564)
Experimental: as §1

p38-delta = p38-delta (Homo sapiens (Human), UniProt O15264)
Experimental: as §1

PIKFYVE = PIKFYVE (Homo sapiens (Human), UniProt Q9Y2I7)
Experimental: as §1

SRPK3 = SRPK3 (Homo sapiens (Human), UniProt Q9UPE1)
Experimental: as §1

DRAK2 = DRAK2 (Homo sapiens (Human), UniProt O94768)
Experimental: as §1

EGFR(T790M) = EGFR(T790M) (Homo sapiens (Human), UniProt P00533, T790M)
Experimental: as §1

[1] = molecular target: RSK2 (Kin.Dom.2-C-terminal) (Homo sapiens (Human), UniProt P51812)
Experimental: as §1

NEK7 = NEK7 (Homo sapiens (Human), UniProt Q8TDX7)
Experimental: as §1

PDPK1 = PDPK1 (Homo sapiens (Human), UniProt O15530)
Experimental: as §1

CAMK2B = CAMK2B (Homo sapiens (Human), UniProt Q13554)
Experimental: as §1

MAP4K5 = MAP4K5 (Homo sapiens (Human), UniProt Q9Y4K4)
Experimental: as §1

p38-beta = p38-beta (Homo sapiens (Human), UniProt Q15759)
Experimental: as §1

GSK3A = GSK3A (Homo sapiens (Human), UniProt P49840)
Experimental: as §1

AAKI = AAKI (Homo sapiens (Human), UniProt Q2M2I8)
Experimental: as §1

PRKD1 = PRKD1 (Homo sapiens (Human), UniProt Q15139)
Experimental: as §1

NEK11 = NEK11 (Homo sapiens (Human), UniProt Q8NG66)
Experimental: as §1

JNK2 = JNK2 (Homo sapiens (Human), UniProt P45984)
Experimental: as §1

BRSK2 = BRSK2 (Homo sapiens (Human), UniProt Q8IWQ3)
Experimental: as §1

CSNK2A2 = CSNK2A2 (Homo sapiens (Human), UniProt P19784)
Experimental: as §1

FER = FER (Homo sapiens (Human), UniProt P16591)
Experimental: as §1

SIK2 = SIK2 (Homo sapiens (Human), UniProt Q9H0K1)
Experimental: as §1

MARK3 = MARK3 (Homo sapiens (Human), UniProt P27448)
Experimental: as §1

DAPK2 = DAPK2 (Homo sapiens (Human), UniProt Q9UIK4)
Experimental: as §1

CDK4-cyclinD1 = CDK4-cyclinD1 (Homo sapiens (Human), UniProt P11802)
Experimental: as §1

PIK3CB = PIK3CB (Homo sapiens (Human), UniProt P42338)
Experimental: as §1

PKAC-alpha = PKAC-alpha (Homo sapiens (Human), UniProt P17612)
Experimental: as §1

GCN2(Kin.Dom.2,S808G) = GCN2(Kin.Dom.2,S808G) (Homo sapiens (Human), UniProt Q9P2K8, S808G)
Experimental: as §1

OSR1 = OSR1 (Homo sapiens (Human), UniProt O95747)
Experimental: as §1

PIK3CD = PIK3CD (Homo sapiens (Human), UniProt O00329)
Experimental: as §1

FGFR3 = FGFR3 (Homo sapiens (Human), UniProt P22607)
Experimental: as §1

[2] = molecular target: ABL1(M351T)-phosphorylated (Homo sapiens (Human), UniProt P00519, M351T)
Experimental: as §1

WNK3 = WNK3 (Homo sapiens (Human), UniProt Q9BYP7)
Experimental: as §1

PFPK5(P.falciparum) = PFPK5(P.falciparum) (Plasmodium falciparum (isolate 3D7), UniProt P61075)
Experimental: as §1

Sequence of BMPR1B (O00238 14-502): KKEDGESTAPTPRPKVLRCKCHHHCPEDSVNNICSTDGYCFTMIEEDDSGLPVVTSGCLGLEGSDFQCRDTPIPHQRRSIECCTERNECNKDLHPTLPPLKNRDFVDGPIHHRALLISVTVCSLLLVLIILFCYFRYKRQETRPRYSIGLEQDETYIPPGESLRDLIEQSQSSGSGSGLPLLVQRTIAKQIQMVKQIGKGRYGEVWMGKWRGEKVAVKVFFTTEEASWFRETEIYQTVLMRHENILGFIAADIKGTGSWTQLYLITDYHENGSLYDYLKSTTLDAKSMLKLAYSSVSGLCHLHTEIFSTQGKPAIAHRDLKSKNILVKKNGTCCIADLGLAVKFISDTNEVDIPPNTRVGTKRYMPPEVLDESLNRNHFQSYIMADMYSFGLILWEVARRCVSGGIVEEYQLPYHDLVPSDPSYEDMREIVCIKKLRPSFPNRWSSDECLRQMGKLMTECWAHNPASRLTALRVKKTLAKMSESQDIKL
Sequence of SIK2 (Q9H0K1 whole entry): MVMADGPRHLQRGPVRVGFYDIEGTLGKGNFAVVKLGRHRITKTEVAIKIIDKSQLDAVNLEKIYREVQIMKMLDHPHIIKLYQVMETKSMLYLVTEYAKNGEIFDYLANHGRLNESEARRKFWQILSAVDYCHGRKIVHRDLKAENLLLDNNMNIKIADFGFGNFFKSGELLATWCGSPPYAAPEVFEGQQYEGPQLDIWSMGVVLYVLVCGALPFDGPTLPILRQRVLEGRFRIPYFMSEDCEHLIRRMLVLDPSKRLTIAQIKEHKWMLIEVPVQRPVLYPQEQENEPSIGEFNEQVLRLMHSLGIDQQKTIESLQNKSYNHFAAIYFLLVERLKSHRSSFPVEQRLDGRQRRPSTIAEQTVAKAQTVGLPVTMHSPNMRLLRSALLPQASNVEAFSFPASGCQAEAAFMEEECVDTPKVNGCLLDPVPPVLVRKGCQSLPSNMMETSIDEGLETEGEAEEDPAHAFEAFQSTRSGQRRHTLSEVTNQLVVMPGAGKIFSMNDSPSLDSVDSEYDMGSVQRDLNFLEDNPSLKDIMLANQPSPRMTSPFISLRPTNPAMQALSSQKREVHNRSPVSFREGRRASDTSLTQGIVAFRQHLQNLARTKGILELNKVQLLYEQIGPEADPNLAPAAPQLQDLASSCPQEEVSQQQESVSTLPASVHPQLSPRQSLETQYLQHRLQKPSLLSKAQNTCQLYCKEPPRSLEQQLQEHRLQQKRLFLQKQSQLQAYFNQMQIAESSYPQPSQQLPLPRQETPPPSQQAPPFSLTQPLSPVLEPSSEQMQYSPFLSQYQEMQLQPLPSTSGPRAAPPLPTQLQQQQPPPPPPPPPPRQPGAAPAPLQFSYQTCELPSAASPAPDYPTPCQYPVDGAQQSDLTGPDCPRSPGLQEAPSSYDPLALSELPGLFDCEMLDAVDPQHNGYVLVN
Sequence of NEK11 (Q8NG66 whole entry): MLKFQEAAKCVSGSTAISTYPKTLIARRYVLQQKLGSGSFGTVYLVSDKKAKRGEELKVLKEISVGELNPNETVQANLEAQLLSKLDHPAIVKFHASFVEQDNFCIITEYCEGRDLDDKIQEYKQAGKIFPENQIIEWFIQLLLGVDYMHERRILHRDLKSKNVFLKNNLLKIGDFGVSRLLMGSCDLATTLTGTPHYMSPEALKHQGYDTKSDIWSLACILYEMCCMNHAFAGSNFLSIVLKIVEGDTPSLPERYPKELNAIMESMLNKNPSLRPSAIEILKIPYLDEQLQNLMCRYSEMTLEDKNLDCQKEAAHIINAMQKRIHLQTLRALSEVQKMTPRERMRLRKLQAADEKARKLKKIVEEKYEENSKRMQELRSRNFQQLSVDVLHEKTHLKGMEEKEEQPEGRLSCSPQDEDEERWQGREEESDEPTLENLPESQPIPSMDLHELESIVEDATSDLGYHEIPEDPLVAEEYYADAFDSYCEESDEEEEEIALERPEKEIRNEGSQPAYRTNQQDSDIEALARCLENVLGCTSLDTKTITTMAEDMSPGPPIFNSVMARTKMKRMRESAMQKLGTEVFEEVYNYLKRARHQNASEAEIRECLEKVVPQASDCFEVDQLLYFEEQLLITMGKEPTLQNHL
Sequence of CAMK2A (Q9UQM7 whole entry): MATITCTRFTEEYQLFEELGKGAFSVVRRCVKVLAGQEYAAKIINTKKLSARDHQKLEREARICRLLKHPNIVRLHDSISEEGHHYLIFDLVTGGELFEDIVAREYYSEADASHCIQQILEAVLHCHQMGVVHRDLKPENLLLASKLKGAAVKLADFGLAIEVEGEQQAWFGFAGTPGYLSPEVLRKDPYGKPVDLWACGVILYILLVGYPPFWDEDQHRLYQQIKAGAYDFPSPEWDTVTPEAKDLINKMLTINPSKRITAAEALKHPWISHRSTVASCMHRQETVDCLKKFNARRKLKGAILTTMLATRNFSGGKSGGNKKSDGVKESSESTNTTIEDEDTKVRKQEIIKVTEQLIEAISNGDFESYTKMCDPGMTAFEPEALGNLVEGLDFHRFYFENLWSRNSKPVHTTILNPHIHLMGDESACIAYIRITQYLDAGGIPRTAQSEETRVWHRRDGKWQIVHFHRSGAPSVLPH
Sequence of PIKFYVE (Q9Y2I7 whole entry): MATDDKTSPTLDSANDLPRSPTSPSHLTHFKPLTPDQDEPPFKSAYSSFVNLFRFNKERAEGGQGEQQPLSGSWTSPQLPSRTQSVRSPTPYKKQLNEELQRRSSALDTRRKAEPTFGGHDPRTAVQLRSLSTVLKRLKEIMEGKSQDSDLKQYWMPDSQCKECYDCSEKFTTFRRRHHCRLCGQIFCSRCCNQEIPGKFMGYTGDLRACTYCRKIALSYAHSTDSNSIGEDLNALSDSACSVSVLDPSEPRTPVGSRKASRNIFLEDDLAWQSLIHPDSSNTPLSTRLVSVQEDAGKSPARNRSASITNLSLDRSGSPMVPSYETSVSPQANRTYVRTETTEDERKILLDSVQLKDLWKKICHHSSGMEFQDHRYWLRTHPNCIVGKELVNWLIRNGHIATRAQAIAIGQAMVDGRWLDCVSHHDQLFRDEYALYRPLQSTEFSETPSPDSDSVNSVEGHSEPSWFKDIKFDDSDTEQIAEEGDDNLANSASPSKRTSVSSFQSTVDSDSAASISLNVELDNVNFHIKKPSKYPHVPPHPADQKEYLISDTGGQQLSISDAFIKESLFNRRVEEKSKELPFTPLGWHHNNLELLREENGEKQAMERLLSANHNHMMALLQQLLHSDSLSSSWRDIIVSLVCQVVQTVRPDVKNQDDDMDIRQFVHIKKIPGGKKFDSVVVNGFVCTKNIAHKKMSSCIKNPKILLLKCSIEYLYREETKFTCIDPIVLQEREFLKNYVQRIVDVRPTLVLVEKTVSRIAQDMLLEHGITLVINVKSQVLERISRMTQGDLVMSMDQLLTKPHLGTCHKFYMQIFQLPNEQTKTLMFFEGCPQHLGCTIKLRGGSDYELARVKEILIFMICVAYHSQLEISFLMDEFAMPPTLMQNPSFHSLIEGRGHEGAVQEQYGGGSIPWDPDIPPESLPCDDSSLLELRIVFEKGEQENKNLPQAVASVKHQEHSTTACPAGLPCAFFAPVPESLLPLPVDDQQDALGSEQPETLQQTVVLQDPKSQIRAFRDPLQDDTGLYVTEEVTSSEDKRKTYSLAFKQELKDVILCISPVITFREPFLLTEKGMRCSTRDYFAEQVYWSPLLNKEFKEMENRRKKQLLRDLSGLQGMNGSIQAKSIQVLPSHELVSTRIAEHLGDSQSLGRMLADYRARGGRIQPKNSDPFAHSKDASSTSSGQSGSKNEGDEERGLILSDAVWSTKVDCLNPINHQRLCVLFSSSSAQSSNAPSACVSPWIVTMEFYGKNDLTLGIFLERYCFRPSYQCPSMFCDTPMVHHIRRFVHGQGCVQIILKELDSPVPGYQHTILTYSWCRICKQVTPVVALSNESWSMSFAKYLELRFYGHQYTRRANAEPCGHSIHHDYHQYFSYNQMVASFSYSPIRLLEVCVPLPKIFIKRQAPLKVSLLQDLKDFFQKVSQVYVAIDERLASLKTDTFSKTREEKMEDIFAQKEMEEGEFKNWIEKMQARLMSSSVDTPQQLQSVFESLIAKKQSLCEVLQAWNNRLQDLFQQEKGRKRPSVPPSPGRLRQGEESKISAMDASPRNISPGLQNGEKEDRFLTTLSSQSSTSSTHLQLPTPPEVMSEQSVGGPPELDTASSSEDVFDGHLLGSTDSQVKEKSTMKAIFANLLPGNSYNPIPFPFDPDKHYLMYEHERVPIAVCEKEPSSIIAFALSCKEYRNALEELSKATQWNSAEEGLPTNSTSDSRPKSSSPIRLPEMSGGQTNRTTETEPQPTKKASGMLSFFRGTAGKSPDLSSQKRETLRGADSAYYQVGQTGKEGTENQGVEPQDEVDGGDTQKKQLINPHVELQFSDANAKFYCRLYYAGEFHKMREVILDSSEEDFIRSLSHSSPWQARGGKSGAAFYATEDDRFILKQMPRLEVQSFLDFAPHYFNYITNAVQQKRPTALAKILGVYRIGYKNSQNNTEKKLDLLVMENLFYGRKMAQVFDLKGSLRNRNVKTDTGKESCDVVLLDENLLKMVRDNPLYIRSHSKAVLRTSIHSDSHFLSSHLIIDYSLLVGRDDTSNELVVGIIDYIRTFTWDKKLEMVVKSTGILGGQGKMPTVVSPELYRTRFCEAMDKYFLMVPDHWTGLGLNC
Sequence of p38-delta (O15264 whole entry): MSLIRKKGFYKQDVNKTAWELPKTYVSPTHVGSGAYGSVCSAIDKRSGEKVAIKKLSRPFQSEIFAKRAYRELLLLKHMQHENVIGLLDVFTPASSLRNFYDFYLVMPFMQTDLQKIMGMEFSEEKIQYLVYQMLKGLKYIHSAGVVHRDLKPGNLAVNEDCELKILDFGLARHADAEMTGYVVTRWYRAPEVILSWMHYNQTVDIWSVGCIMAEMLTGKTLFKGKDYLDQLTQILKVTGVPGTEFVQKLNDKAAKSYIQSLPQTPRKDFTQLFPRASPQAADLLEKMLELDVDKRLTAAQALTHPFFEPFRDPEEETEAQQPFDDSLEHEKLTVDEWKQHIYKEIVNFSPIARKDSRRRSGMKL

Structure (SMILES)	remaining binding at 1 µM (CAMK2A)	remaining binding at 1 µM (IKK-alpha)	remaining binding at 1 µM (WNK4)	remaining binding at 1 µM (BMPR1B)	remaining binding at 1 µM (PDGFRB)	remaining binding at 1 µM (EPHA6)	remaining binding at 1 µM (MEK6)	remaining binding at 1 µM (p38-delta)	remaining binding at 1 µM (PIKFYVE)	remaining binding at 1 µM (SRPK3)	remaining binding at 1 µM (DRAK2)	remaining binding at 1 µM (EGFR(T790M))	remaining binding at 1 µM [1]	remaining binding at 1 µM (NEK7)	remaining binding at 1 µM (PDPK1)	remaining binding at 1 µM (CAMK2B)	remaining binding at 1 µM (MAP4K5)	remaining binding at 1 µM (p38-beta)	remaining binding at 1 µM (GSK3A)	remaining binding at 1 µM (AAKI)	further results
CCN1CCN(Cc2cc(NC(=O)c3ccc(C)c(-c4ccc5nc(NC(=O)C6CC6)cn5n4)c3)cc(C(F)(F)F)c2)CC1 [Compound I-2, 3-(2-(cyclopropanecarboxamido)imidazo[1,2-b]pyridazin-6-yl)-N-(3-((4-ethylpiperazin-1-yl)methyl)-5-(trifluoromethyl)phenyl)-4-methylbenzamide]	100%	53%	75%	84%	0%	5.2%	94%	41%	93%	92%	89%	15%	78%	99%	89%	100%	0.7%	60%	43%	100%	remaining binding at 1 µM (PRKD1): 93%; remaining binding at 1 µM (NEK11): 65%; remaining binding at 1 µM (JNK2): 46%; remaining binding at 1 µM (BRSK2): 93%; remaining binding at 1 µM (CSNK2A2): 94%; remaining binding at 1 µM (FER): 29%; remaining binding at 1 µM (SIK2): 100%; remaining binding at 1 µM (MARK3): 94%; remaining binding at 1 µM (DAPK2): 94%; remaining binding at 1 µM (CDK4-cyclinD1): 19%; remaining binding at 1 µM (PIK3CB): 100%; remaining binding at 1 µM (PKAC-alpha): 75%; remaining binding at 1 µM (GCN2(Kin.Dom.2,S808G)): 82%; remaining binding at 1 µM (OSR1): 99%; remaining binding at 1 µM (PIK3CD): 100%; remaining binding at 1 µM (FGFR3): 86%; remaining binding at 1 µM [2]: 0.8%; remaining binding at 1 µM (WNK3): 92%; remaining binding at 1 µM (PFPK5(P.falciparum)): 91%
CCN1CCN(Cc2cc(NC(=O)c3ccc(C)c(-c4ccc5nc(NC(=O)C6CC6)cn5c4)c3)cc(C(F)(F)F)c2)CC1 [Compound I-6, 3-(2-(cyclopropanecarboxamido)imidazo[1,2-a]pyridin-6-yl)-N-(3-((4-ethylpiperazin-1-yl)methyl)-5-(trifluoromethyl)phenyl)-4-methylbenzamide]	100%	63%	100%	86%	0%	0.75%	95%	32%	100%	83%	98%	15%	100%	91%	83%	100%	3.2%	62%	68%	89%	remaining binding at 1 µM (PRKD1): 87%; remaining binding at 1 µM (NEK11): 89%; remaining binding at 1 µM (JNK2): 27%; remaining binding at 1 µM (BRSK2): 71%; remaining binding at 1 µM (CSNK2A2): 100%; remaining binding at 1 µM (FER): 6%; remaining binding at 1 µM (SIK2): 100%; remaining binding at 1 µM (MARK3): 95%; remaining binding at 1 µM (DAPK2): 100%; remaining binding at 1 µM (CDK4-cyclinD1): 17%; remaining binding at 1 µM (PIK3CB): 94%; remaining binding at 1 µM (PKAC-alpha): 97%; remaining binding at 1 µM (GCN2(Kin.Dom.2,S808G)): 97%; remaining binding at 1 µM (OSR1): 100%; remaining binding at 1 µM (PIK3CD): 69%; remaining binding at 1 µM (FGFR3): 89%; remaining binding at 1 µM [2]: 0.5%; remaining binding at 1 µM (WNK3): 83%; remaining binding at 1 µM (PFPK5(P.falciparum)): 77%
